# What was measured:
# P. carinii = test: Protection against P. carinii infection in anti-CD4 treated (immunocompromised) mice, lung impression smear score; format: in vivo; set-up: GIEMSA score for presence of P. carinii / SILVER score for presence of P. carinii: scale not given here
# Description: Mice were pretreated with L3T4 anti-CD4 antibody for a minimum of 2 weeks (2 injections/week, 0.2 mg/injection) or until the peripheral CD4 count was reduced by at least about 50%.
# An aqueous formulation was prepared containing 1 mg/ml 3-O-deacylated monophosphoryl lipid A and 108 μg/ml of the surfactant DPPC in water. The formulation was administered intratracheally via a small cannula at −24 hours and then twice a week for the remainder of the study. The concentrations administered are indicated below in Table 1. One million P. carinii were inoculated trans-tracheally at day 0. Twice-weekly treatments were continued for 7 weeks, lungs were removed and impression smears made. Slides were stained with Giemsa and silver and scored for the presence of P. carinni as follows.
# C3H/HEJ splenocytes = test: Cytokine induction in C3H/HEJ (toll-receptor 4 mutant) mouse splenic cultures; format: cell-based
# Description: Lipid A compounds were tested by reconstitution in 0.2% triethanolamine in sterile water for irrigation, incubated at 56° C. and sonicated for 2×10 minutes at 37° C. LPS 055B5 (Sigma-Aldrich; St Louis, Mo.) was diluted into PBS.
# BALB/c, DBA/2 and C3H/HEJ mice were purchased from The Jackson Laboratory (Bar Harbor, Me.). Spleens were taken from the mice between 2 PM and 3 PM, and separate single cell suspensions were obtained for each mouse strain. Red blood cells were lysed using Tris-ammonium chloride solution (Sigma-Aldrich), cells were washed and counted using Trypan Blue (Sigma-Aldrich) exclusion. One million splenocytes were cultured per well in 1.0 mL of culture medium. Splenic culture medium (SCM) was designed for 5 day or longer cultures of mouse splenocytes and consisted of RPMI 1640 (Sigma-Aldrich) supplemented to 5% with fetal bovine serum (HyClone; Logan, Utah), 100 ug/mL Gentamicin (Sigma-Aldrich), 250 ng/mL amphothericin (InVitrogen Life Technologies; Carlsbad, Calif.), 1×ITS (bovine insulin 500 ng/mL, human transferring 500 ng/mLg, sodium selenite 250 ng/mL, Sigma), beta-mercaptoethanol 43 nM (Sigma-Aldrich) purivic acid 1 mM (Sigma-Aldrich), HEPES 10 mM (Sigma-Aldrich). Data from these experiments is presented herein as FIG. 8.
# BALB/c responses and C3H/HEJ responses were compared for MPL and RC552. […]
# human macrophage = test: Microarray of RNA from stimulated human macrophage; format: cell-based
# human whole blood = format: cell-based
# [1] = 25 MG/KG intratracheally at -24 hours then twice a week, 7 weeks, Table 1
# [2] = 100 MG/KG intratracheally, 7 weeks, Table 1
# [3] = 250 MG/KG intratracheally, 7 weeks, Table 1
substance,measurement,setting,value
3-O-deacylated monophosphoryl lipid A [MPL],GIEMSA score for presence of P. carinii,P. carinii; [1],3.4 ± 0.5
same,SILVER score for presence of P. carinii,P. carinii; [1],3.3 ± 0.1
same,GIEMSA score for presence of P. carinii,P. carinii; [2],2.7 ± 0.5
same,SILVER score for presence of P. carinii,P. carinii; [2],3.2 ± 0.1
same,GIEMSA score for presence of P. carinii,"P. carinii; 100 MG/KG, repeated study, Table 2",1.3 ± 0.3
same,GIEMSA score for presence of P. carinii,"P. carinii; 200 MG/KG, repeated study, Table 2",1.0 ± 0.3
same,GIEMSA score for presence of P. carinii,P. carinii; [3],1.8 ± 0.8
same,SILVER score for presence of P. carinii,P. carinii; [3],1.6 ± 0.2
same,nonspecific resistance to infection by Pneumocystis carinii,"P. carinii; pulmonary delivery, immunocompromised mice",promotes nonspecific resistance to infection by Pneumocystis carinii
same,cytokine response,C3H/HEJ splenocytes,Neither MPL nor RC552 induced a cytokine response
same,early TNF alpha RNA,human macrophage; 1 hour,early (1 hour) TNF alpha RNA for both compounds
same,6 hour TNF alpha RNA,human macrophage; 6 hour,measurable 6 hour RNA
same,IL-1β cba2,human whole blood; donor 1,1213
same,IL10/TNFα cba,"human whole blood; donor 2, ratio of IL-10 to TNF",1
same,TNFα/IL10 cba,"human whole blood; donor 2, ratio of TNF to IL-10",1
